Laboratory results taken from US20250360105A1, “USE OF ERGOTHIONEINE FOR ANTI-AGING” (NANJING NUTRABUILDING BIO-TECH CO., LTD., priority 2022, published 2025).

Experiments:
[1] = test system: pro-inflammatory cytokines IL-1α, IL-1β, IL-6, and TNF-α; assay: Quantification of pro-inflammatory cytokines in serum of aging mice using ELISA Array kit; format: in vivo; conditions: serum of 56-week-old mice, EGT compared to without EGT treatment, FIG. 2
Experimental: 18 […]/6 male mice aged about 8 weeks, were randomly assigned to three study groups (GA, GB, GC). The total experimental time was 56 weeks, and the control group was consisted of 12 animals, and all of the animals were maintained in an animal facility room under controlled environmental conditions (22±1° C., 12 h-light/12 h dark cycle, free access to food and water). All procedures were carried out in accordance with institutional policies on experimental animal handling. Treatment details of the individual study groups were: Group A (GA): euthanized at the age of 10 weeks; Group B (GB): euthanized at the age of 56 weeks without EGT treated; Group C (GC): euthanized at the age of 56 weeks with EGT treated every day.

[2] = test system: lamin C; assay: Taqman quantitative real-time PCR of lamin C mRNA in coronary artery endothelial cells of aging mice; format: in vivo; conditions: 56-week-old mice treated with EGT every day, compared to without EGT treated; FIG. 1
[3] = test system: progerin; assay: Taqman quantitative real-time PCR of progerin mRNA in coronary artery endothelial cells of aging mice; format: in vivo; conditions: 56-week-old mice treated with EGT every day, compared to without EGT treated; FIG. 1
Experimental: (§1) 18 […]/6 male mice aged about 8 weeks, were randomly assigned to three study groups (GA, GB, GC). The total experimental time was 56 weeks, and the control group was consisted of 12 animals, and all of the animals were maintained in an animal facility room under controlled environmental conditions (22±1° C., 12 h-light/12 h dark cycle, free access to food and water). All procedures were carried out in accordance with institutional policies on experimental animal handling. Treatment details of the individual study groups were: Group A (GA): euthanized at the age of 10 weeks; Group B (GB): euthanized at the age of 56 weeks without EGT treated; Group C (GC): euthanized at the age of 56 weeks with EGT treated every day. For all the euthanized mice, formalin-fixed paraffin embedded 3 μm sections were prepared from the tissues of coronary artery, and were snap-frozen and stored at -80° C. Taqman quantitative real-time PCR was used for detection of progerin mRNA. Messenger RNA was extracted using RNeasy Mini Kit Plus (Qiagen, Valencia, CA). The Taqman probe was as described by Rodriguez et al. (Rodriguez, S., et al., Increased expression of the Hutchinson Gilford progeria syndrome truncated lamin A transcript during cell aging. 2009. 17(7): p. 928-937). The forward primer was [NT] ID NO: 1), and the reverse primer was [NT] ID NO: 2).

[4] = test system: lamin A; assay: Taqman quantitative real-time PCR of lamin A mRNA in coronary artery endothelial cells of aging mice; format: in vivo; conditions: 56-week-old mice treated with EGT every day, compared to without EGT treated; FIG. 1
Experimental: as §1

[5] = test system: vascular and intracellular adhesion molecules in endothelial cells; conditions: Anticoli et al. 2010; cited from earlier work

SMILES: C[N+](C)(C)[C@@H](Cc1c[nH]c(=S)[nH]1)C(=O)[O-] [EGT, Ergothioneine]
- pro-inflammatory cytokines (IL-1α, IL-1β, IL-6, TNF-α) [1]: obvious decrease
- mRNA of lamin C in coronary artery endothelial cells [2]: decrease
- mRNA expression of progerin in coronary artery endothelial cells [3]: obvious decrease
- mRNA of lamin A in coronary artery endothelial cells [4]: decrease
- IL-1β-induced expression of vascular and intracellular adhesion molecules [5]: inhibit
